# From the METLIN SMRT retention time set (Domingo-Almenara et al. 2019)
# Experiment: gradient 5% acetonitrile 3 min, to 50% in 2 min, to 85% in 15 min, held 3 min, 100 µL/min
# Conditions: column: Zorbax Extend-C18 2.1 x 50 mm; eluents: water / acetonitrile, 0.1% formic acid
# Summary of the method: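 Retention times come from adduct peaks that were picked computationally and then checked by hand. The standards, pure and pooled in mixtures of ~100 molecules, were run on a Zorbax Extend-C18 column (2.1 × 50 mm, 1.8 μm) at 100 μL/min with water and acetonitrile, each with 0.1% formic acid. Detection was by quadrupole time-of-flight mass spectrometry in positive and negative ionization mode, with a dead volume of 40 μL and a dwell volume of 900 μL.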
row,RP-LC retention time [s],SMILES
1,654,O=C(NC1CCCC1)C1CCN(c2nc3ccc(-c4cccnc4)nc3s2)CC1
2,641,CCn1c(CCNC(=O)c2ccc(F)c(F)c2)nc2cccnc21
3,640,O=C(NC1CCCC1)c1ccc2ncnc(N3CCCCC3)c2c1
4,671,Cn1nc(C(=O)N2CCCC(C(=O)NC3CC3)C2)c2c1CCN(C(=O)CCc1ccccc1)C2 (centres undefined)
5,772,COc1ccccc1-c1nc2cnccn2c1NCCC(=O)N1CCc2ccccc21
6,804,O=C(OCCCNc1nc(-c2ccc(Cl)cc2)nc2ccccc12)c1cccs1
7,846,COc1ccc(NC(=O)N2CCCC(C)(C(=O)NCc3ccccc3)C2)cc1OC (centres undefined)
8,747,CCCC(=O)NC1(c2nc(-c3ccncc3)no2)CCCCC1
9,824,OCCNc1nc(N2CCOCC2)nc2c1cnn2-c1ccc(Cl)cc1
10,1100,COc1c(C(=O)NC2CCCC2)sc2cccc(F)c12
11,644,COc1ccc(Nc2cc(C)nc(N)n2)cc1
12,1140,Cc1ccc(NC(=O)Cn2nc(N3CCC(C)CC3)c3ccccc3c2=O)cc1
13,882,Cn1nc(-c2nnc(-c3ccc(F)cc3)o2)c2c1CCN(S(=O)(=O)c1cccc3cccnc13)C2
14,782,Cc1sc(-n2c(C)c3c(C)nnc(C)c3c2C)nc1-c1ccc(Br)cc1
15,573,CN1CCc2nnc(C3CCN(C(=O)Nc4ccc(Cl)cc4F)C3)n2CC1 (centres undefined)
16,719,Cc1sc(NC(=O)CN(C)S(C)(=O)=O)c(C#N)c1C
17,786,COc1ccc(Cl)cc1NC(=O)NCC1CN(CC2CC2)CC12CCCCC2 (centres undefined)
18,619,CNC(=O)[C@@H]1CN(C(=O)c2noc(C)c2COC)C[C@H]1c1nc(C)no1
19,557,Cc1cc(C(=O)NCC(c2cn(C)c3ccccc23)N(C)C)no1 (centres undefined)
20,1230,CC(C)c1cc(C(=O)Nc2cccc(Cl)c2)nc2ccnn12
21,821,COC(=O)c1cc(OCC(=O)Nc2ccc3c(c2)OCO3)c2cc(C)ccc2n1
22,1060,COc1ccc(N2CCN(c3ccc4cc(S(=O)(=O)N5CCC(C)CC5)ccc4n3)CC2)cc1
23,665,O=C(NC1CCCCC1)C1CCN(Cc2noc(-c3ccc(F)cc3)n2)CC1

row,RP-LC retention time [s],SMILES
1,1090,Cc1nc(-c2cn(C(C)C)c3ncccc23)sc1C(=O)Nc1ccccc1F
2,804,COc1ccc(NC(=O)N2CCN(c3ccc(=O)n(-c4ccc(C)cc4)n3)CC2)c(OC)c1
3,714,Cn1nc(-c2ccc(NC(=O)c3ccc([N+](=O)[O-])cc3Cl)cc2)ccc1=O
4,897,Cc1oc(C(C)C)nc1C(=O)NCc1cccs1
5,844,O=C(NC1CCCC1)c1ccc(Cn2nc(N3CCN(c4ccccc4)CC3)ccc2=O)o1
6,684,N#Cc1cccc(-c2cn3c(n2)N(C(=O)c2cccs2)CCC3)c1
7,978,COc1cccc(-c2noc(Cn3c(=O)n(-c4ccccc4C)c(=O)c4sccc43)n2)c1
8,645,Cn1cc(CCN2CCN(S(=O)(=O)c3ccc(Cl)cc3)CC2)c2cccnc21
9,640,Cc1cc(C)c2[nH]c3c(c(=O)c2c1)CN(CC(=O)Nc1cccc(F)c1)CC3
10,795,CSc1ccc(-c2nc3ccc(C)cn3c2Nc2ccccc2C)cc1
11,627,Cc1ccc(NC(=O)N2CCN(c3cnn4cnnc4c3)CC2)cc1
12,975,CCS(=O)(=O)c1nc2ccc(NS(=O)(=O)c3ccc(C(C)C)cc3)cc2s1
13,777,O=C(NC1CCN(c2cc(-c3ccc(Cl)cc3)[nH]n2)C1)c1ccccc1F (centres undefined)
14,645,Cc1oc(-c2[nH]ncc2C(=O)N2CCOCC2)cc1S(=O)(=O)NC1CCCC1
15,702,Cc1c(CNCc2ccco2)c(C(=O)O)c(C)n1Cc1cccc(Cl)c1
16,580,COc1ncccc1CNC(=O)CCc1c(C)nn(C)c1C
17,906,Cc1cc(S(=O)(=O)NCC(c2cccs2)S(=O)(=O)c2ccccc2)ccc1F (centres undefined)
18,594,O=C(c1ccc2nc[nH]c2c1)N1CCN(c2cc(-c3cccs3)[nH]n2)CC1
19,695,CC(=O)c1ccc(N2CCN(C(=O)c3ccc(-n4cccn4)nn3)CC2)cc1
20,662,CCOc1ccc(S(=O)(=O)N2CCC(C(=O)NCc3ccncc3)CC2)cc1C
21,859,COc1cccc(-n2c(N3CCCC(C(=O)NCc4ccccc4)C3)nc3ccsc3c2=O)c1 (centres undefined)
22,1110,CCc1ccccc1-n1c(-c2ccc(Cl)cc2)cn2c3c(=O)n(C)c(=O)n(C)c3nc12
23,864,O=C(Cc1ccsc1)N1CCC(c2nc(-c3ccccc3)no2)C1 (centres undefined)

row,RP-LC retention time [s],SMILES
1,1020,Cc1nc2cc(-c3noc(-c4ncoc4-c4ccccc4)n3)ccc2o1
2,668,COc1ccc(Br)cc1CNC(=O)C1CCCN(c2ccc(N3CCOCC3)nn2)C1 (centres undefined)
3,982,CS(=O)(=O)N1CCC(C(=O)Nc2cccc(F)c2)Oc2ccc(Cl)cc21 (centres undefined)
4,698,O=S(=O)(c1ccccc1)N1CCN(c2cnn3c(C4CC4)nnc3c2)CC1
5,699,CC(=O)Nc1nnc(SCc2cc(=O)c(OC(=O)c3ccccc3Cl)co2)s1
6,1160,O=C1/C(=C/c2ccc([N+](=O)[O-])cc2)CCc2ccccc21
7,1170,CCOc1ccc(-c2cc3c(=O)n(Cc4nc(-c5ccccc5C)no4)ccn3n2)cc1
8,909,O=C(c1ccc(-c2ccsc2)nc1)N1CCN(c2ccccc2)CC1
9,717,O=c1[nH]c2ccc(NCc3ccc(-c4ccccc4Cl)o3)cc2[nH]1
10,616,Cc1nn(CC(=O)N2CCN(C)CC2)c(=O)c2nc(-c3ccccc3)sc12
11,644,COc1ccccc1-c1nc(-c2ccc3c(c2)nnn3CCN(C)C)no1
12,612,O=C(NC1CCN(c2cc(-c3cccs3)[nH]n2)C1)c1ccncc1 (centres undefined)
13,871,O=C(Cn1nc2c(Oc3ccccc3)nccn2c1=O)NCCCc1ccccc1
14,1070,CCOC(=O)N1CCN(C(=O)Cc2c(C)nn(-c3nc(-c4ccc(C)cc4)cs3)c2C)CC1
15,668,Cc1ccc(N2CCN(C(=O)c3ccc4ncnc(N5CCCC5)c4c3)CC2)cc1
16,674,Cc1cccn2cc(-c3ccc(NS(=O)(=O)c4ccc(Br)cc4)cc3)nc12
17,747,CCc1cccc(NC(=O)Nc2ccc3nncn3c2)c1
18,849,Cc1cc(-c2nnc(-c3ccco3)o2)c(C)n1CC(=O)NCc1ccc(F)cc1
19,846,CCCn1cc(C2=CCN(C(=O)Nc3ccc4c(c3)OCCO4)CC2)c2cccnc21
20,763,O=S(=O)(NCC1Cn2cccc2CN1Cc1ccccc1)c1ccccc1 (centres undefined)
21,923,CC(C)NC(=O)N1CCCC(c2cccc(C(=O)NCc3ccc(Cl)cc3)c2)C1 (centres undefined)
22,669,COc1ccccc1C(CNC(=O)c1cc(=O)c2ccc(Br)cc2o1)N(C)C (centres undefined)
23,952,O=C(Cn1c(=O)c2cccn2c2ccc(F)cc21)NCCC1=CCCCC1

row,RP-LC retention time [s],SMILES
1,830,Cc1cc(C2CCCN2C(=O)Nc2ccccc2Cl)on1 (centres undefined)
2,780,O=C(c1nnn(-c2ccc(Cl)cc2)c1-c1cccnc1)N1CCSCC1
3,595,CCOC(=O)CC1(NC(=O)N2CCCn3nc(-c4ccncc4)cc3C2)CCCCC1
4,801,Cc1nn(C)c(=O)c2cc(S(=O)(=O)NC(C)c3ccccc3)cn12 (centres undefined)
5,661,Cc1ccc(CN2CCCC(c3nc(C(C)C)no3)CCNC(=O)CC2)s1 (centres undefined)
6,995,COc1ccc(-c2ccc(=O)n(Cc3nc(-c4ccc(F)cc4)no3)n2)cc1
7,832,COC(=O)C1=CN(c2ccccc2C)c2cc(F)ccc2S1(=O)=O
8,1040,COc1ccc(CNC(=O)C2CCCN(S(=O)(=O)c3cc(-c4noc(C)n4)cs3)C2)cc1 (centres undefined)
9,587,O=C(NCC#CCN1CCc2ccccc2C1)c1ccc(Cl)s1
10,884,CCC(=O)Oc1ccc(NC(=O)c2ccc(S(=O)(=O)N3CCCC3)cc2)cc1
11,657,CCOC(=O)c1c(C)[nH]c(C(=O)N2CCC(CC(=O)NCC3CCCO3)CC2)c1C (centres undefined)
12,606,Cc1nnc2n1CCN(C(=O)c1ccc(OC(F)(F)F)cc1)C2
13,597,O=C(NC1CCCCCC1)c1ccc2c(c1)ncn2CCN1CCCC1
14,978,CCOc1ccccc1NS(=O)(=O)c1ccc(-c2c(C)noc2C)cc1
15,732,O=C(CN1C(=O)C2CCCCN2c2ccc(C(=O)N3CCCC3)cc21)NC1CCCC1 (centres undefined)
16,622,CC(NC(=O)c1ccc2c(c1)nc1n2CCN(Cc2ccccc2)C1=O)c1ccccn1 (centres undefined)
17,1120,COc1ccc(Cl)cc1NC(=O)N1CCCC1c1nc(-c2ccc(F)cc2F)no1 (centres undefined)
18,652,COC1CCOC2(CCN(C(=O)c3ccoc3)CC2)C1 (centres undefined)
19,930,CCCCCNC(=O)C1CCN(c2ccc(Sc3cc(C)ccc3C)nn2)CC1
20,990,COc1cccc(N2C(=O)C3N=NN(Cc4nc(-c5ccc(C)cc5)no4)C3C2=O)c1 (centres undefined)
